Results from publication PMC7531004, “Discovery of gramicidin A analogues with altered activities by multidimensional screening of a one-bead-one-compound library” (Nature Communications, 2020).
Where “and” joins values, the source holds several entries; their conditions need not be identical. Identical values can stand only once. Like-named read-outs stand apart in the source and are kept apart here. Where a SMILES comes first, the peptide text is derived from it. [ ]: non-standard residue; d: D form. The star is where a group is joined. NHCH2CH2OH = OCCN*; For = O=C*

Assays:
[1] = H+/Na+ transport assay of bead-derived peptides (one-point); format: biochemical; design: key: relative activity; mean of two control wells = 1.00; details: bead-derived peptide solution, EYPC/EYPG LUVs;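 further: relative to parent gramicidin A activity set to 1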
Summary of the method: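 H+/Na+ transport is monitored through pyranine fluorescence in freshly extruded LUVs after a 30-min room-temperature vortex with each library peptide at a single concentration. Signals are normalized to detergent (Triton X-100) and untreated controls.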

[2] = tested on: Streptococcus pyogenes SSI-9; experiment: Antibacterial activity assay of bead-derived peptides (three concentrations); format: cell-based; design: key: +++: inhibition by the 640-fold diluted peptide solution; ++: inhibition by the 160-fold diluted solution; +: inhibition by the 40-fold diluted solution; -: no inhibition; details: S. pyogenes
Summary of the method: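 First, each peptide stock was diluted 4- and 16-fold in DMSO; next, the three solutions were mixed with S. pyogenes SSI-9 suspension (2 × 10^5 CFU) in cation-adjusted Mueller Hinton Broth plus 5% laked horse blood; finally, plates stood 18 h at 37 °C before checking for grown-cell precipitation.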

[3] = tested on: P388 mouse leukemia cell line
rabbit red blood cells = details: red cells of rabbit, 2 h
[4] = H+/Na+ transport assay of purified peptides; details: for Supplementary Figure 5 dose-response value (H+/Na+ transport): three replicate lines
Procedure: First, we evaluated the ion channel function of 1 using liposomes. To mimic a negatively charged Gram-positive bacterial membrane, the liposomes were prepared as large unilamellar vesicles (LUVs) comprising a 19:1 mixture of egg yolk phosphatidylcholine (EYPC) and egg yolk phosphatidylglycerol (EYPG)[57]. Pyranine, a pH-dependent fluorescent dye[58], was encapsulated in the LUVs and a pH gradient was applied across the membrane. H^+/Na^+ transport induced by a peptide was monitored by changes in the fluorescence intensity of pyranine.

- EC50 ([4]; read-out: EC50, H+/Na+ transport assay, 1st experiment): 4.66 nM
- EC50 ([4]; read-out: EC50, H+/Na+ transport assay, 2nd experiment): 3.91 nM
- EC50 ([4]; read-out: EC50, H+/Na+ transport assay, 3rd experiment): 4.81 nM
- EC50 ([4]; read-out: H+/Na+ transport activity EC50, EYPC/EYPG (19:1) LUVs): 4.5 nM
- EC50 ([4]; read-out: H+/Na+ transport activity/EC50, mean ± SD of three independent experiments): 4.46 ± 0.48 nM
Structure (SMILES): CC(C)C[C@@H](NC(=O)[C@H](C)NC(=O)CNC(=O)[C@@H](NC=O)C(C)C)C(=O)N[C@@H](C)C(=O)N[C@@H](C(=O)N[C@H](C(=O)N[C@@H](C(=O)N[C@@H](Cc1c[nH]c2ccccc12)C(=O)N[C@H](CC(C)C)C(=O)N[C@@H](Cc1c[nH]c2ccccc12)C(=O)N[C@H](CC(C)C)C(=O)N[C@@H](Cc1c[nH]c2ccccc12)C(=O)N[C@H](CC(C)C)C(=O)N[C@@H](Cc1c[nH]c2ccccc12)C(=O)NCCO)C(C)C)C(C)C)C(C)C [compound 1, Gramicidin A] (For-VGA[dL]A[dV]V[dV]W[dL]W[dL]W[dL]W-NHCH2CH2OH)
- H+/Na+ transport activity normalized against the value of 1 (1.00) [1]: 1.07
- antibacterial activity in the library screening [2]: ++ or +
- antibacterial activity ([2]; bead-derived peptide solution, three concentrations): -
- IC99.6 value (threshold concentration of one-point cytotoxicity assay) [3]: 30 nM
- P388 cytotoxicity more sensitive than hemolytic activity [3]: 28 fold
- Hemolytic activity HC10 (concentration causing 10% hemolysis) (rabbit red blood cells): 160 nM
- EC55.2 value (threshold concentration of one-point ion transport assay) ([4]; H+/Na+ transport): 5.9 nM
- Supplementary Figure 5 dose-response value (H+/Na+ transport) ([4]; concentration 0.000512 nM): 0.1393 and -1.026 and 0.8168
- Supplementary Figure 5 dose-response value (H+/Na+ transport) ([4]; concentration 0.00256 nM): 2.399 and 0.2926 and 2.304
- Supplementary Figure 5 dose-response value (H+/Na+ transport) ([4]; concentration 0.0128 nM): 3.982 and 3.019 and 2.7829
- Supplementary Figure 5 dose-response value (H+/Na+ transport) ([4]; concentration 0.064 nM): 7.464 and 5.495 and 5.604
- Supplementary Figure 5 dose-response value (H+/Na+ transport) ([4]; concentration 0.32 nM): 9.988 and 12.6133 and 15.027
- Supplementary Figure 5 dose-response value (H+/Na+ transport) ([4]; concentration 1.6 nM): 25.261 and 17.8892 and 24.5099
- Supplementary Figure 5 dose-response value (H+/Na+ transport) ([4]; concentration 8 nM): 43.5648 and 41.9563 and 41.0019
- Supplementary Figure 5 dose-response value (H+/Na+ transport) ([4]; concentration 40 nM): 66.4966 and 62.6758 and 58.9306
- Supplementary Figure 5 dose-response value (H+/Na+ transport) ([4]; concentration 200 nM): 70.2683 and 64.7328 and 64.4099
- Supplementary Figure 5 dose-response value (H+/Na+ transport) ([4]; concentration 1000 nM): 68.3656 and 69.2628 and 73.7672
- Supplementary Figure 5 dose-response value (H+/Na+ transport) ([4]; concentration 5000 nM): 72.2926 and 68.3983 and 71.8941
